Laboratory results published in the supplement of paper PMC10307832.

Tests used:
Assay in all cases: relative viability (nuclei count vs DMSO), 5 days (fraction); higher = more cells survive
MLN4924 + Pictilisib = compound: NS(=O)(=O)OC[C@@H]1C[C@@H](n2ccc3c(N[C@H]4CCc5ccccc54)ncnc32)C[C@@H]1O [MLN4924] + CS(=O)(=O)N1CCN(Cc2cc3nc(-c4cccc5[nH]ncc45)nc(N4CCOCC4)c3s2)CC1 [Pictilisib] (partner 1 µM)
Outline: (§1)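 Lung cancer cell lines in 1536-well plates were dosed by pin tool the day after seeding, either with one drug alone or with a fixed anchor-drug dose plus five library-drug doses (not always all listed) in √10 steps. After 5 days, cells were fixed and their nuclei stained in one step (final 0.05% Triton X-100, 1% formaldehyde, 1 ug/ml Hoechst), then counted on 4× images. Relative viability is the nuclei count in treated wells divided by that in vehicle wells. Values are medians of duplicate plates.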

GSK126 + OSI-027 = compound: CC[C@H](C)N1C=C(C2=C(C=C(C=C21)C3=CN=C(C=C3)N4CCNCC4)C(=O)NCC5=C(C=C(NC5=O)C)C)C [GSK126] + COc1cccc2cc(-c3nc([C@H]4CC[C@H](C(=O)O)CC4)n4ncnc(N)c34)[nH]c12 [OSI-027] (partner 0.5 µM)
Outline: as §1

GSK126 + Olaparib = compound: CC[C@H](C)N1C=C(C2=C(C=C(C=C21)C3=CN=C(C=C3)N4CCNCC4)C(=O)NCC5=C(C=C(NC5=O)C)C)C [GSK126] + O=C(c1cc(Cc2n[nH]c(=O)c3ccccc23)ccc1F)N1CCN(C(=O)C2CC2)CC1 [Olaparib] (partner 8 µM)
Outline: as §1

MLN4924 + Olaparib = compound: NS(=O)(=O)OC[C@@H]1C[C@@H](n2ccc3c(N[C@H]4CCc5ccccc54)ncnc32)C[C@@H]1O [MLN4924] + O=C(c1cc(Cc2n[nH]c(=O)c3ccccc23)ccc1F)N1CCN(C(=O)C2CC2)CC1 [Olaparib] (partner 8 µM)
Outline: as §1

| Cell Line | relative viability (MLN4924 + Pictilisib; first compound 0.04 µM) | relative viability (MLN4924 + Pictilisib; first compound 0.1265 µM) | relative viability (MLN4924 + Pictilisib; first compound 0.4 µM) | relative viability (MLN4924 + Pictilisib; first compound 1.265 µM) | relative viability (MLN4924 + Pictilisib; first compound 4 µM) | relative viability (GSK126 + OSI-027; first compound 0.08 µM) | relative viability (GSK126 + OSI-027; first compound 0.253 µM) | relative viability (GSK126 + OSI-027; first compound 0.8 µM) | relative viability (GSK126 + OSI-027; first compound 2.53 µM) | relative viability (GSK126 + OSI-027; first compound 8 µM) | relative viability (GSK126 + Olaparib; first compound 0.08 µM) | relative viability (GSK126 + Olaparib; first compound 0.253 µM) | relative viability (GSK126 + Olaparib; first compound 0.8 µM) | relative viability (GSK126 + Olaparib; first compound 2.53 µM) | relative viability (GSK126 + Olaparib; first compound 8 µM) | relative viability (MLN4924 + Olaparib; first compound 0.04 µM) | relative viability (MLN4924 + Olaparib; first compound 0.1265 µM) | relative viability (MLN4924 + Olaparib; first compound 0.4 µM) | relative viability (MLN4924 + Olaparib; first compound 1.265 µM) | relative viability (MLN4924 + Olaparib; first compound 4 µM) |
| --- | --- | --- | --- | --- | --- | --- | --- | --- | --- | --- | --- | --- | --- | --- | --- | --- | --- | --- | --- | --- |
| LU99A | 0.334 | 0.299 | 0.226 | 0.153 | 0.137 | 0.341 | 0.324 | 0.275 | 0.311 | 0.296 | 0.245 | 0.258 | 0.266 | 0.243 | 0.232 | 0.18 | 0.136 | 0.16 | 0.108 | 0.0968 |
| NCI-H2405 | 0.452 | 0.73 | 0.505 | 0.246 | 0.254 | 0.602 | 0.633 | 0.611 | 0.622 | 0.662 | 0.887 | 0.84 | 0.844 | 0.89 | 0.744 | 0.748 | 0.524 | 0.323 | 0.239 | 0.231 |
| NCI-H2009 | 0.456 | 0.159 | 0.236 | 0.0505 | 0.0867 | 0.789 | 0.544 | 0.64 | 0.682 | 0.72 | 0.755 | 0.653 | 0.714 | 0.588 | 0.713 | 0.449 | 0.382 | 0.143 | 0.146 | 0.0556 |
| HOP-62 | 0.521 | 0.428 | 0.0949 | 0.0537 | 0.103 | 0.888 | 0.845 | 0.869 | 0.867 | 0.798 | 0.447 | 0.506 | 0.414 | 0.455 | 0.428 | 0.205 | 0.303 | 0.0801 | 0.0633 | 0.0555 |
| NCI-H727 | 0.4 | 0.311 | 0.268 | 0.291 | 0.244 | 0.653 | 0.686 | 0.599 | 0.603 | 0.627 | 0.866 | 0.805 | 0.68 | 0.812 | 0.646 | 0.599 | 0.422 | 0.559 | 0.369 | 0.481 |
| COR-L 105 | 0.427 | 0.455 | 0.399 | 0.268 | 0.274 | 0.694 | 0.666 | 0.616 | 0.72 | 0.771 | 0.586 | 0.628 | 0.732 | 0.583 | 0.631 | 0.5 | 0.568 | 0.427 | 0.278 | 0.335 |
| PC-3 [JPC-3] | 0.904 | 0.817 | 0.334 | 0.251 | 0.313 | 0.839 | 0.847 | 0.76 | 0.822 | 0.855 | 1.1 | 1.14 | 1.09 | 1.15 | 1.12 | 1.16 | 1.05 | 0.298 | 0.436 | 0.452 |
| NCI-H2347 | 0.841 | 0.895 | 0.387 | 0.324 | 0.369 | 0.433 | 0.356 | 0.49 | 0.463 | 0.346 | 0.562 | 0.524 | 0.529 | 0.581 | 0.62 | 0.666 | 0.605 | 0.512 | 0.4 | 0.376 |
| SW 1573 | 0.487 | 0.637 | 0.22 | 0.0805 | 0.0657 | 0.959 | 0.656 | 0.665 | 0.625 | 0.846 | 0.609 | 0.542 | 0.582 | 0.621 | 0.49 | 0.486 | 0.303 | 0.108 | 0.0465 | 0.07 |
| NCI-H838 | 0.365 | 0.236 | 0.253 | 0.138 | 0.189 | 0.43 | 0.403 | 0.309 | 0.424 | 0.379 | 0.82 | 0.817 | 0.738 | 0.714 | 0.769 | 0.434 | 0.243 | 0.197 | 0.124 | 0.136 |
| HCC-44 | 0.641 | 0.474 | 0.0983 | 0.0904 | 0.127 | 0.623 | 0.624 | 0.595 | 0.562 | 0.706 | 1.01 | 1.02 | 1.03 | 0.92 | 1 | 0.882 | 0.748 | 0.694 | 0.538 | 0.414 |
| HCC-78 | 0.272 | 0.187 | 0.14 | 0.138 | 0.139 | 0.359 | 0.379 | 0.384 | 0.373 | 0.396 | 0.742 | 0.822 | 0.807 | 0.822 | 0.617 | 0.867 | 0.967 | 0.684 | 0.222 | 0.22 |
| A-427 | 0.66 | 0.406 | 0.284 | 0.179 | 0.222 | 0.491 | 0.515 | 0.43 | 0.409 | 0.456 | 0.704 | 0.724 | 0.701 | 0.765 | 0.837 | 0.467 | 0.335 | 0.296 | 0.24 | 0.241 |
| CAL-12T |  | 0.41 | 0.299 | 0.237 | 0.156 | 0.78 | 0.576 | 0.767 | 0.67 | 0.819 | 0.809 | 0.713 | 0.758 | 0.829 | 0.643 | 0.667 | 0.538 | 0.249 | 0.17 | 0.13 |
| SK-MES-1 | 0.425 | 0.535 | 0.356 | 0.174 | 0.198 | 0.626 | 0.649 | 0.637 | 0.654 | 0.712 | 0.798 | 0.787 | 0.721 | 0.724 | 0.657 | 0.653 | 0.545 | 0.305 | 0.158 | 0.234 |
